The results in this text go back to patent US5541174A, “Analgesic method” (priority 1995, dated 1996).

By % Inhibition is commonly meant the share of the control response that was lost under treatment. The term ED50 denotes the dose that gives a 50% effect, or the effect in half of the subjects.

Assay [1] relates to acetic acid-induced writhing mouse pain model. The experiment in a line: Naloxone reversal of analgesia in the acetic acid-induced writhing mouse pain model. Format: in vivo. The conditions noted are these: for % Inhibition: 555 umol/kg s.c. The protocol: (§1) Groups of 10 ICR male mice (Taisho Pharmaceutical Co. Research Center) were used to study each dose of every compound. Ligands or complexes were administered orally or subcutaneously in 0.1 ml of vehicle per 10 g of body weight 30 minutes before the intrapertioneal injection of 0.1 ml of 0.7% acetic acid solution per 10 g of body weight. Number of writhes were counted for each mouse during a period of 10 to 20 min after acetic acid injection. Inhibitory percent was calculated by comparison with the number of writhes in the non-treated control, vehicle-treated, and acetic acid-injected group. The ED50 value and 95% confidence limits were calculated from the inhibitory percent by the method of Litchfield and Wilcoxon.
(§2) All drugs were suspended with 5% gum arabic in saline solution or wetted with enough propylene glycol to give a final concentration of 4% propylene glycol and the wetted solid suspended in 1.4% polyvinyl alcohol in saline.
NaloxoneHCL (3 umol/kg. i.v., in saline, Endo Lab.) was administered 5
min. before acetic acid injection.

The test system is the same in assay [2]. The experiment in a line: Measurement of time of peak activity in the acetic acid-induced writhing mouse pain model. Format: in vivo. The method, then:
Groups of 10 ICR male mice (Taisho Pharmaceutical Co. Research Center) were used to study each dose of every compound. […] Number of writhes were counted for each mouse during a period of 10 to 20 min after acetic acid injection. Inhibitory percent was calculated by comparison with the number of writhes in the non-treated control, vehicle-treated, and acetic acid-injected group. The ED50 value and 95% confidence limits were calculated from the inhibitory percent by the method of Litchfield and Wilcoxon.
as §2

For assay [3], the system named is adjuvant-induced arthritic pain in rats. Nature of the assay: Adjuvant-induced arthritic pain. The format is in vivo, male Sprague-Dawley rats.
Source text: 2. Adjuvant-induced arthritic pain as described in:
S. KUZNA, et al., Measurement of Arthritic Pain and Effects of Analgesics in the Adjuvant-Treated Rat, Chem. Pharm. Bull. 23, 1184-1191 (1975);
C. A. WINTER, et al., Analgesic Activity of Diflunisal in Rats with Hyperalygesia Induced by Freud's Adjuvant, J. Pharmacol. Exp. Ther. 211, 678-685 (1979; and
M. E. ROSENTHALE, et al., Adjuvant Arthritis:Immuno-Pathological and Hyperalgesic Features, Fed. Proced. 41, 2577-2582 (1982),
incorporated by reference herein.
Groups of 5-6 male Sprague-Dawley rats (Taisho Pharmaceutical Co. Research Center) weighing 140 to 160 g at the time of Mycobacterium butyricum (adjuvant, Difco Laboratories, Detroit, Mich.) injection were used to study each compound. Rats were injected intradermally at the base of the tail with 0.1 ml of a parafin oil suspension of 0.5 mg of heat-killed mycobacterium. Fifteen to 19 days later, drugs were administered orally or subcutaneously in 0.5 ml of vehicle per 100 g of body weight to rats showing the nociceptive reaction, vocalization following a gentle flexion of the tarsal-tibial joint of the inflamed hind-paw. Vocalization responses were measured every hour for 5 hours. […] The ED50 value and 95% confidence limits were calculated from the positive rate for non-treated controls, vehicle-treated adjuvant arthritic rats, by the method of Litchfield and Wilcoxin.
as §2

Assay [4] deals with acetic acid induced writhing in mice. The experiment in a line: Acetic acid-induced writhing test. The format is in vivo, ICR male mice. The method, then: 1. Acetic acid-induced writhing test as described in Koster et al., "Acetic Acid for Analgesic Screening", Fed. Proc. 18, 412 (1959), incorporated by reference herein; and
as §1
A general note: Writhing tests count abdominal constrictions after an irritant is injected.

Setting [5] is: oral, 5% gum arabic, 0.06 mmol/kg.
[6] abbreviates: oral, 5% gum arabic, 0.12 mmol/kg.
[7] abbreviates: oral, 5% gum arabic, 0.24 mmol/kg.
Setting [8] is: oral, 5% gum arabic, 0.04 mmol/kg.
The mark [9] stands for this setting: oral, 5% gum arabic, 0.08 mmol/kg.

As for `CCN(CC)C(=S)[S-].CCN(CC)C(=S)[S-].[Cu+2]` [Cu(II)(DDC)2, Bisdiethyldithiocarbamatocopper(II)], the “% Inhibition” value in assay [1] (with Naloxone HCl 3 umol/kg i.v.) is 29%; in assay [1] (without naloxone), 45%. Further, the “reduction of induced analgesia by Naloxone” value in assay [1] (Table VIII) is reported as “reduction”. Also, the Inhibition % in assay [2] (555 umol/kg s.c., 30 min) stood at 29%; in assay [2] (555 umol/kg s.c., 60 min) it was 42%; in assay [2] (555 umol/kg s.c., 120 min) it was 45%; in assay [2] (555 umol/kg s.c., 180 min), 29%. In addition, in assay [2] (Table VII), the “duration of analgesic effect” value is on record as “prolonged duration of analgesic effect”.
Take `CCN(CC)C(=S)[S-].[Na+]` [NaDDC, sodium diethyldithiocarbamate, reference compound]: the Inhibition % turned out to be 48% in assay [2] (584 umol/kg s.c., 30 min); 53% in assay [2] (584 umol/kg s.c., 60 min); 20% in assay [2] (584 umol/kg s.c., 120 min); 18% in assay [2] (584 umol/kg s.c., 180 min).
As for Cu(II)2 (acetate)4, the analgesic activity result in assay [3] (doses statistically significantly analgesic in the writhing model) is “devoid of analgesic activity”. The median effective dose (ED50) in assay [3] (oral, PG-PVA in saline) was greater than 0.83 mmol/kg; in assay [3] (s.c., PG-PVA in saline) it was greater than 0.83 mmol/kg; in assay [4] (s.c., PG-PVA in saline) it was 0.32 mmol/kg. Moreover, the “% Inhibition” value in assay [3] (oral, PG-PVA, 0.83 mmol/kg) amounted to 0%; in assay [3] (s.c., PG-PVA, 0.83 mmol/kg), 3%; in assay [4] (s.c., PG-PVA, 0.21 mmol/kg), 42%; in assay [4] (s.c., PG-PVA, 0.41 mmol/kg), 59%; in assay [4] (s.c., PG-PVA, 0.83 mmol/kg) it was 61%. The “effectiveness versus other compounds” value in assay [4] (writhing model, Tables I and II) is “more effective than anthranilic acid, salicylic acid, and aspirin”.
On to “Tetra(.eta.-acetylsalicylato)biscopper(II) [Cu(II)2 (aspirinate)4]”, for which the “analgesic effectiveness versus parent ligand” value in assay [3] (oral, 5% gum arabic) is on record as “more effective than their parent ligand”; in assay [4] (oral, 5% gum arabic in saline), “more effective than their parent ligands”; in assay [4] (oral, PG-PVA), “more effective than their parent ligands”. Further, the ED50 in assay [3] (oral, 5% gum arabic in saline) was 0.29 mmol/kg; in assay [3] (oral, PG-PVA in saline), 0.09 mmol/kg; in assay [3] (s.c., PG-PVA in saline), 0.06 mmol/kg; in assay [4] (oral, 5% gum arabic in saline) it was greater than 0.24 mmol/kg; in assay [4] (oral, PG-PVA in saline), 0.14 mmol/kg; in assay [4] (s.c., PG-PVA in saline), 0.04 mmol/kg. For the same compound, the “% Inhibition” value was found to be 7% in assay [3] (setting [5]); 17% in assay [3] (setting [6]); 43% in assay [3] (setting [7]); 13% in assay [3] (oral, PG-PVA, 0.03 mmol/kg); 30% in assay [3] (oral, PG-PVA, 0.06 mmol/kg); 60% in assay [3] (oral, PG-PVA, 0.12 mmol/kg). The “% Inhibition” value is recorded as 23% in assay [3] (s.c., PG-PVA, 0.03 mmol/kg); 50% in assay [3] (s.c., PG-PVA, 0.06 mmol/kg); 73% in assay [3] (s.c., PG-PVA, 0.12 mmol/kg); 37% in assay [4] (setting [5]); 38% in assay [4] (setting [6]); 33% in assay [4] (setting [7]). Also, the “% Inhibition” value in assay [4] (oral, PG-PVA, 0.09 mmol/kg) was determined as 32%; in assay [4] (oral, PG-PVA, 0.18 mmol/kg), 59%; in assay [4] (oral, PG-PVA, 0.36 mmol/kg), 80%; in assay [4] (s.c., PG-PVA, 0.03 mmol/kg), 36%; in assay [4] (s.c., PG-PVA, 0.06 mmol/kg) it was 59%; in assay [4] (s.c., PG-PVA, 0.24 mmol/kg) it was 82%.
Regarding “[2[3(trifluoromethyl)phenyl]aminonicotinato]2n -(aqua)n -copper(II)n [Cu(II)2 (niflumate)4]”, the “analgesic effectiveness versus parent ligand” value in assay [3] (oral, 5% gum arabic) is given as “more effective than their parent ligand”; in assay [4] (oral, 5% gum arabic in saline), “more effective than their parent ligands”; in assay [4] (oral, PG-PVA), “more effective than their parent ligands”. In addition, the median effective dose (ED50) in assay [3] (oral, 5% gum arabic in saline) was 0.18 mmol/kg; in assay [3] (oral, PG-PVA in saline), greater than 0.16 mmol/kg; in assay [3] (s.c., PG-PVA in saline), 0.03 mmol/kg; in assay [4] (oral, 5% gum arabic in saline), 0.09 mmol/kg; in assay [4] (oral, PG-PVA in saline), 0.10 mmol/kg; in assay [4] (s.c., PG-PVA in saline), 0.02 mmol/kg. Further, the “% Inhibition” value was 7% in assay [3] (setting [8]); 13% in assay [3] (setting [9]); 17% in assay [3] (s.c., PG-PVA, 0.01 mmol/kg); 50% in assay [3] (s.c., PG-PVA, 0.02 mmol/kg); 60% in assay [3] (s.c., PG-PVA, 0.04 mmol/kg); 37% in assay [4] (setting [8]). Moreover, the “% Inhibition” value in assay [4] (setting [9]) was 48%; in assay [4] (oral, PG-PVA, 0.06 mmol/kg), 33%; in assay [4] (oral, PG-PVA, 0.12 mmol/kg) it was 57%; in assay [4] (oral, PG-PVA, 0.24 mmol/kg) it was 73%; in assay [4] (s.c., PG-PVA, 0.01 mmol/kg), 37%; in assay [4] (s.c., PG-PVA, 0.02 mmol/kg) it was 48%. The “% Inhibition” value in assay [4] (s.c., PG-PVA, 0.04 mmol/kg) was found to be 58%.
